# According to patent publication US6451814B1, “Heterocyclic β-3 adrenergic receptor agonists” (Wyeth, priority 2000, dated 2002):
# pEC50: −log10 of the molar value. Where “and” joins values, the source holds several entries; their conditions need not be identical. Identical values can stand only once.
# Key:
# [1] = biological target: T1, human β3-adrenergic receptor (Homo sapiens, UniProt P13945); assay: cAMP response (SPA kit) in CHO cells transfected with human β3 adrenergic receptor; format: cell-based; conditions: for pEC50: CHO cells expressing human β3-AR, 10^-9 M to 10^-5 M, 30 min at 37° C., cAMP by SPA, read-out: EC50(β3); for IA(β3): maximal response of compound compared to maximal response of isoproterenol at 10^-5 M, CHO cells, human β3-AR
# T1 construct: Full length β3 AR clones (402 amino acids) containing the last 6 amino acids of hβ3—AR are prepared; expressed in transfected cells; host or cells: CHO cells
# T1 sequence (P13945 whole entry): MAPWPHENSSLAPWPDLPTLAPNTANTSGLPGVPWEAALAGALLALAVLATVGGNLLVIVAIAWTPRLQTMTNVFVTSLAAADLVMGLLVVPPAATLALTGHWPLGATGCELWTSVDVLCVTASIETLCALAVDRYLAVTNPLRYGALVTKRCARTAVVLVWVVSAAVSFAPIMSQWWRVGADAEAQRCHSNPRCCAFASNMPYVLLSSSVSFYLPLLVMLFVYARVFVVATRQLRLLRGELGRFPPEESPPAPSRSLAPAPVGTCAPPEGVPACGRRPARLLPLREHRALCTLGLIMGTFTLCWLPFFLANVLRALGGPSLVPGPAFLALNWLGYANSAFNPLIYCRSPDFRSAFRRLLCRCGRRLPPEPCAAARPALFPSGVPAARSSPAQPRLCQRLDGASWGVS
SMILES,pEC50 [1],IA(β3) [1],melting point [°C]
"CCc1ccc(CCNC(=O)N2CCC(Nc3ccc(CCNC[C@H](O)COc4ccc(O)cc4)cc3)CC2)cc1 [Example 30, 4-(4-{2-[(2S)-2-Hydroxy-3-(4-hydroxy-phenoxy)-propylamino]-ethyl}-phenylamino)-piperidine-1-carboxylic Acid [2-(4-ethyl-phenyl)-ethyl]-amide]",7.47 and 7.31 and 7.66 and 7.01,1 and 0.87 and 0.84 and 0.65,79 to 81
"O=C(NCc1ccc(-n2cccn2)cc1C(F)(F)F)N1CCC(Nc2ccc(CCNC[C@H](O)COc3ccc(O)cc3)cc2)CC1 [Example 34, 4-(4-{2-[(2S)-2-Hydroxy-3-(4-hydroxy-phenoxy)-propylamino]-ethyl}-phenylamino)-piperidine-1-carboxylic Acid 4-pyrazol-1-yl-2-trifluoromethyl-benzylamide]",7.21,0.83,96 to 100
"O=C(NCc1cccc(F)c1)N1CCC(Nc2ccc(CCNC[C@H](O)COc3ccc(O)cc3)cc2)CC1 [Example 27, 4-(4-{2-[(2S)-2-Hydroxy-3-(4-hydroxy-phenoxy)-propylamino]-ethyl}-phenylamino)-piperidine-1-carboxylic Acid 3-fluoro-benzylamide]",7.22,0.86,68 to 73
"Cc1ccc(CCCNC(=O)N2CCC(Nc3ccc(CCNC[C@H](O)COc4ccc(O)cc4)cc3)CC2)cc1 [Example 29, 4-(4-{2-[(2S)-2-Hydroxy-3-(4-hydroxy-phenoxy)-propylamino]-ethyl}-phenylamino)-piperidine-1-carboxylic Acid (3-p-tolyl-propyl)-amide]",7.37,1,69 to 72
"O=C(NCc1c(F)cccc1F)N1CCC(Nc2ccc(CCNC[C@H](O)COc3ccc(O)cc3)cc2)CC1 [Example 32, 4-(4-{2-[(2S)-2-Hydroxy-3-(4-hydroxy-phenoxy)-propylamino]-ethyl}-phenylamino)-piperidine-1-carboxylic Acid 2,6-difluoro-benzylamide]",–,1.04 and 0.77,80 to 84
"O=C(NCCCc1cccs1)N1CCC(Nc2ccc(CCNC[C@H](O)COc3ccc(O)cc3)cc2)CC1 [Example 23, 4-(4-{2-[(2S)-2-Hydroxy-3-(4-hydroxy-phenoxy)-propylamino]-ethyl}-phenylamino)-piperidine-1-carboxylic Acid (3-thiophen-2-yl-propyl)-amide]",8.00,0.88,73 to 77
"COc1cccc(CNC(=O)N2CCC(Nc3ccc(CCNC[C@H](O)COc4ccc(O)cc4)cc3)CC2)c1OC [Example 25, 4-(4-{2-[(2S)-2-Hydroxy-3-(4-hydroxy-phenoxy)-propylamino]-ethyl}-phenylamino)-piperidine-1-carboxylic Acid 2,3-dimethoxy-benzylamide]",7.19,0.87,87 to 91
Cc1ccc(C(=O)CCNC(=O)N2CCC(Nc3ccc(CCNC[C@H](O)COc4ccc(O)cc4)cc3)CC2)cc1 [Example 28],8.00,0.76,85 to 89
"COc1ccc(C2CCN(C(=O)N3CCC(Nc4ccc(CCNC[C@H](O)COc5ccc(O)cc5)cc4)CC3)CC2)cc1OC1CCCC1 [Example 17, [4-(3-Cyclopentyloxy-4-methoxy-phenyl)-piperidin-1-yl]-[4-(4-{2-[(2S)-2-hydroxy-3-(4-hydroxy-phenoxy)-propylamino]-ethyl}-phenylamino)-piperidin-1-yl]-methanone]",7.82,0.63,92 to 95

# Further lines, results first:
pEC50 [1],IA(β3) [1],melting point [°C],SMILES
8.52,1,160 to 162,"CCCCCCCCNC(=O)N1CCC(Nc2ccc(CCNC[C@H](O)c3ccc(O)c(NS(C)(=O)=O)c3)cc2)CC1 [Example 59, 4-(4-{2-[(2R)-2-Hydroxy-2-(4-hydroxy-3-methanesulfonylamino-phenyl)-ethylamino]-ethyl}-phenylamino)-piperidine-1-carboxylic Acidoctylamide]"
–,1,103 to 108,"CS(=O)(=O)Nc1cc(OC[C@@H](O)CNCCc2ccc(NC3CCN(C(=O)NCc4cc(F)ccc4F)CC3)cc2)ccc1O [Example 50, 4-(4-{2-[(2S)-2-Hydroxy-3-(4-hydroxy-3-methanesulfonylamino-phenoxy)-propylamino]-ethyl}-phenylamino)-piperidine-1-carboxylic Acid 2,5-difluoro-benzylamide]"
–,0.67,83 to 85,"CCCCCCCCNC(=O)N1CCC(Nc2ccc(CCNC[C@H](O)COc3ccc(O)c4c3CCC(=O)N4)cc2)CC1 [Example 69, 4-(4-{2-[(2S)-2-Hydroxy-3-(8-hydroxy-2-oxo-1,2,3,4-tetrahydro-quinolin-5-yloxy)-propylamino]-ethyl}-phenylamino)-piperidine-1-carboxylicacid Octylamide]"
9.00,0.82,93 to 97,"CCOC(=O)C1CCN(C(=O)N2CCC(Nc3ccc(CCNC[C@H](O)c4ccc(O)c(NS(C)(=O)=O)c4)cc3)CC2)CC1 [Example 51, 1-[4-(4-{2-[(2R)-2-Hydroxy-2-(4-hydroxy-3-methanesulfonylamino-phenyl)-ethylamino]-ethyl}-phenylamino)-piperidine-1-carbonyl]-piperidine-4-carboxylic Acid Ethyl Ester]"
6.77,1.07,148 to 150,"O=C(NCCCCCCCCF)N1CCC(Nc2ccc(CCNC[C@H](O)COc3ccc(O)cc3)cc2)CC1 [Example 55, N-(8-Fluorooctyl)-4-[4-(2-{[(2S)-2-hydroxy-3-(4-hydroxyphenoxy)propyl]amino}ethyl)anilino]-1-piperidinecarboxamide]"
7.51,1,52 to 56,"CCCCCCCCNC(=O)N1CCC(S(=O)(=O)c2ccc(CCNC[C@H](O)COc3ccc(O)cc3)cc2)CC1 [Example 47, 4-(4-{2-[(2S)-2-Hydroxy-3-(4-hydroxy-phenoxy)-propylamino]-ethyl}-benzenesulfonyl)-piperidine-1-carboxylic Acid Octylamide]"
–,0.92,69 to 72,"O=C(NCc1cc(F)ccc1F)N1CCC(Nc2ccc(CCNC[C@H](O)COc3ccc(O)cc3)cc2)CC1 [Example 37, 4-(4-{2-[(2S)-2-Hydroxy-3-(4-hydroxy-phenoxy)-propylamino]-ethyl}-phenylamino)-piperidine-1-carboxylic Acid 2,5-difluoro-benzylamide]"
6.90,0.78,64 to 68,CCCCCCCCS(=O)(=O)N1CCC(Nc2ccc(CCNC[C@H](O)COc3ccc(O)cc3)cc2)CC1 [Example 111]
7.02,0.72,181 to 183,"O=C(NCc1ccc(F)cc1)N1CCC(Sc2ccc(CCNC[C@H](O)COc3ccc(O)cc3)cc2)CC1 [Example 42, 4-(4-{2-[(2S)-2-Hydroxy-3-(4-hydroxy-phenoxy)-propylamino]-ethyl}-phenylsulfanyl)-piperidine-1-carboxylic Acid-4-fluorobenzylamide]"
7.05,1.34,69 to 71,"CCOC(=O)C1CCN(C(=O)N2CCC(Nc3ccc(CCNC[C@H](O)COc4ccc(O)cc4)cc3)CC2)CC1 [Example 61, 1-[4-(4-{2-[(2S)-2-Hydroxy-3-(4-hydroxy-phenoxy)-propylamino]-ethyl}-phenylamino)-piperidine-1-carbonyl]-piperidine-4-carboxylic Acid Ethyl Ester]"
